Patent US6716422B1, “Vaccine adjuvants for immunotherapy of melanoma” (ARCH Development Corporation, priority 1998, dated 2004)
Ends that are not written are not given here.

Legend:
[1] = system: peptide-specific, IFN-γ-producing CD8+ T cells; experiment: Human vaccination study: peptide-specific T cell response; settings: one line per patient
Experimental: Following immunization, assays for peptide specific CTL activity and cytokine production, in particular IFN-γ were conducted.
For each vaccination, 100 cc heparinized blood was obtained and PBMC isolated by Lymphoprep centrifugation. A portion of cells was set aside and separated into CD8+ and CD8-fractions for cryopreservation.
Pulsed PBMC were irradiated (2000 rad), centrifuged, and resuspended in 2 cc DPBS for injection.
Injection of pulsed PBMC was performed subcutaneously, divided between 2 sites, either in upper arms or proximal legs.
rhIL-12, at the assigned dose level (ng/kg), was injected subcutaneously near one of the two vaccine sites.
The entire procedure was repeated every 3 weeks, with clinical reevaluation every 3 cycles.
In vitro expansion of CD8^+ T cells for testing was performed using minimal activation conditions: peptide-pulsed CD8-negative cells as APCs, only 10 U/ml rIL-2 added on day 2 of each stimulation, with one 6-day stimulation followed by a second 4-5 day stimulation.

[2] = system: melanoma cell lines expressing MAGE-3; settings: activated B cells or dendritic cells, HLA-A2 donor; only if IL-12 included during initial stimulation; cited from earlier work
[3] = system: refractory metastatic melanoma; experiment: Human vaccination study: clinical outcome; format: in vivo; settings: one line per patient
Excerpt: Evaluation of tumor regression is a secondary endpoint in this study. Tumor masses are characterized carefully with bidimensional measurements.
Criteria for a Partial Response (PR): 50% reduction in the sum of the product of the largest perpendicular diameters of the indicator lesions identified prior to therapy.
Criteria for a Complete Response (CR): total disappearance of all evidence of tumor without appearance of new lesions.
Criteria for Progressive Disease (PD): appearance of new lesions; and/or fifty percent increase in the sum of the product of the largest perpendicular diameters of the indicator lesions.
Criteria for Stable Disease (SD): Failure to meet the criteria for a Partial Response, Complete Response, or Progressive Disease.

[4] = Relative hydrophilicity/solubility of tumor peptides; format: physicochemical
Experimental: Peptides encoded by several of the unique tumor antigens of the tum^− variants have been defined, such as the P198 peptide used in one of the examples herein. […] Therefore, initial peptide-based immunization studies were performed using the more soluble P198 peptide. Information gained was then examined using P1A peptide as well. Studies with P1A are important in order to measure efficacy of immunization in vivo in terms of protection against living tumor challenge and regression of pre-established tumors. These types of studies would not be possible with P198 because that tumor is rejected spontaneously.

[5] = cited from earlier work
[6] = system: advanced renal cell carcinoma; settings: cited from earlier work
[7] = room temperature; cited from earlier work
[8] = cited from earlier work; remark: listed apart in the source

FLWGPRALV [Mage3]
Evidence Immunized? ([1]; IL-12 dose 0): No | Evidence Immunized? ([1]; IL-12 dose 30 ng/kg): Yes | Induction of specific CTL [2]: specific CTL induced | Clinical Outcome ([3]; IL-12 dose 0): PD (appearance of new lesions; and/or fifty percent increase in the sum of the product of the largest perpendicular diameters of the indicator lesions) | Clinical Outcome ([3]; IL-12 dose 30 ng/kg): PD (appearance of new lesions; and/or fifty percent increase in the sum of the product of the largest perpendicular diameters of the indicator lesions) | Clinical Outcome ([3]; IL-12 dose 100 ng/kg): PD (appearance of new lesions; and/or fifty percent increase in the sum of the product of the largest perpendicular diameters of the indicator lesions)

KYQAVTTTL [P198 peptide]
Hydrophilicity relative to P1A peptide [4]: more hydrophilic than the P1A peptide

rhIL-12: recombinant human interleukin-12, manufactured by the Genetics Institute
Tolerability ([5]; in vivo): well tolerated | Renal cell carcinoma patients with a minor response ([5]; subcutaneous schedule): Two | Patients requiring hospitalization for adverse events ([6]; 500 ng/kg/day intravenously 5 times per wk, 16 day rest): 12 of the 17 | Deaths attributed to rhIL-12 ([6]; 500 ng/kg/day intravenously): Two | Patient deaths ([6]; 500 ng/kg/day intravenously): 4 | Time within which unit doses in a syringe must be used [7]: ≤ 4 h | Toxicities ([8]; intravenous, 3-1000 ng/kg/day): transient cytopenias (nadirs occurring 2-5 days after treatment), reversible increases of transaminases and bilirubin, transient hyperglycemia, stomatitis, and capillary leak syndrome | Maximally tolerated dose ([8]; intravenous, single test dose, 2 wk later daily for 5 days, every 3 wk): 500 ng/kg/day | Tumor responses ([8]; patients with various malignancies): several tumor responses observed
